From patent publication US6818203B2, “Use of perfluoroalkyl-containing metal complexes as contrast media in MR-imaging for visualization of plaque, tumors and necroses” (Schering Aktiengesellschaft, priority 2000, dated 2004)

Key:
[1] = critical micelle formation concentration (CMC) by tensiometry; format: physicochemical
Procedure: In aqueous systems, these amphiphilic molecules show the properties that are characteristic of standard surfactants (such as, e.g., sodium dodecylsulfate, SDS). They thus reduce the surface tension of water. By tensiometry, the so-called CMC (critical micelle formation concentration in mol/l) can be determined. In this respect, the surface tension is determined based on the concentration of the substance to be measured. The CMC can be calculated from the plot of the surface tension function (c) that is obtained. The critical micelle formation concentration of the compounds according to the invention must be <10^−3 mol/l, preferably <10^−4 mol/l.
(§1) Both the determination of the CMC and the photon correlation spectroscopy are described in H.-D. Dörfler, “Grenzflächen- und Kolloidchemie [Interface and Colloid Chemistry],” Weinheim, New York, Basel, Cambridge, Tokyo, VSH 1994.

[2] = hydrodynamic micelle diameter (2 Rh) by photon correlation spectroscopy (PCS); format: physicochemical
From the text: The amphiphilic compounds according to the invention are combined in solution and are present as aggregates. The size (2 Rh) of such aggregates (e.g., micelles, rods, wafers, etc.) can be determined with the aid of […] (PCS).
As a second criterion, the hydrodynamic micelle diameter 2 Rh, which must be >1 nm, is therefore used. Those perfluoroalkyl-containing metal complexes according to the invention whose 2 RH is ≧3, quite especially preferably >4 nm, are especially suitable.
as §1

[3] = proton relaxivity in plasma (R^1), Minispec P 20; format: physicochemical; settings: 40° C., 0.47 tesla, bovine plasma
Procedure: As a third criterion, the proton-relaxivity in plasma (R^1) at 40° C. and a field strength of 0.47 tesla is used. The relaxivity, which is indicated in [l/mmol·s], is the quantitative measurement for the shortening of relaxation time T^1 of the protons. For the purpose according to the invention, the relaxivity must be as high as possible and >10 l/mmol·s, preferably >13 l/mmol·s, especially preferably >15 l/mmol·s.
Relaxivity R^1 [l/mmol·s] of the MR-contrast media according to the invention was determined with the Minispec P 20 device of the Bruker Company. The measurements were taken at 40° C. and a field strength of 0.47 tesla. Eight measuring points were recorded by each T1-sequence: 180°-TI-90°, inversion recovery. As a medium, bovine plasma of the Kraeber Company was used. The contrast medium concentrations [mmol/l] in the batches were between 0.30 and 1.16.

myocardial infarction = experiment: infarction visualization (MRT) after intravenous administration in rats with acutely induced myocardial infarction; format: in vivo
From the text: The successful induction of an acute myocardial infarction was confirmed by means of NBT-staining.

iliac lymph nodes [4] = experiment: lymph node visualization (MRT) after intravenous administration in VX2-tumor-bearing rabbits; format: in vivo; settings: 200 μmol of Gd/kg i.v.; for signal in zones within the lymph node diagnosed as metastases (confirmed histologically): early images
Procedure: The pictures of FIG. 6 show MR images of an iliac lymph node and of a primary tumor (VX2-tumor implanted i.m.) precontrast, 60 minutes and 20 hours after intravenous administration of 100 μmol of Gd/kg of body weight of metal complex I in rabbits. […] The enhancement in the healthy lymph node tissue was 382% at the time of 15 minutes p.i. and 419% at the time of 60 minutes p.i. […] The ratio of signal intensities of healthy lymph node tissue to metastasis was 3.0 at the time of 15 minutes p.i. and 3.4 at the time of 60 minutes p.i. […] The enhancement in the healthy lymph node tissue was 246% at the time of 15 minutes p.i. and 282% at the time of 60 minutes p.i. […] The ratio of signal intensities of healthy lymph node tissue to metastasis was 2.5 at the time of 15 minutes p.i. and 1.7 at the time of 60 minutes p.i. […] The enhancement in the healthy lymph node tissue was 297% at the time of 10 minutes p.i. and 269% at the time of 60 minutes p.i. […] The ratio of signal intensities of healthy lymph node tissue to metastasis was 5.1 at the time of 10 minutes p.i. and 1.9 at the time of 60 minutes p.i. […] The enhancement in the healthy lymph node tissue was 195% at the time of 15 minutes p.i. and 233% at the time of 60 minutes p.i. […] The ratio of signal intensities of healthy lymph node tissue to metastasis was 1.9 at the time of 15 minutes p.i. and 1.8 at the time of 60 minutes p.i.

[5] = system: primary tumor (VX2-tumor implanted i.m.); experiment: tumor visualization (MRT) after intravenous administration in VX2-tumor-bearing rabbits; format: in vivo; settings: 200 μmol of Gd/kg i.v.; for enhancement of the primary tumor (especially the periphery): 15 minutes p.i.
Procedure: The pictures of FIG. 6 show MR images of an iliac lymph node and of a primary tumor (VX2-tumor implanted i.m.) precontrast, 60 minutes and 20 hours after intravenous administration of 100 μmol of Gd/kg of body weight of metal complex I in rabbits. […]

iliac lymph nodes [6] = experiment: lymph node visualization (MRT) after intravenous administration in rats; format: in vivo; settings: for signal in healthy lymph node tissue (T1-weighted gradient-echo images): very shortly after injection
Procedure: (§2) By way of example, the pictures in FIG. 8 show MR images of iliac lymph nodes precontrast and up to 60 minutes after intravenous administration of 100 μmol of Gd/kg of body weight of metal complex X in rats. […] The enhancement was thus 263% at the time of 15 minutes p.i. and 254% at the time of 60 minutes p.i.
as §2, with “11” for “8”, “200” for “100”, “V” for “X”, “147%” for “263%”, “230%” for “254%”
as §2, with “17” for “8”, “200” for “100”, “III” for “X”, “320%” for “263%”, “401%” for “254%”

[7] = 15 minutes p.i., 200 μmol of Gd/kg i.v.
[8] = 60 minutes p.i., 200 μmol of Gd/kg i.v.

CMC (critical micelle formation concentration) [1] [mol/L] | 2 Rh (hydrodynamic micelle diameter) [2] [nm] | R^1 Plasma (relaxivity) [3] [mmol⁻¹ s⁻¹] | SMILES | signal in healthy lymph node tissue (T1-weighted gradient-echo images) (iliac lymph nodes [4]) | enhancement in the healthy lymph node tissue (iliac lymph nodes [4]; 15 minutes p.i.) [%] | ratio of signal intensities of healthy lymph node tissue to metastasis (iliac lymph nodes [4]; 15 minutes p.i.) | enhancement in the healthy lymph node tissue (iliac lymph nodes [4]; 60 minutes p.i.) [%] | ratio of signal intensities of healthy lymph node tissue to metastasis (iliac lymph nodes [4]; 60 minutes p.i.) | signal in zones within the lymph node diagnosed as metastases (confirmed histologically) (iliac lymph nodes [4]) | enhancement of the primary tumor (especially the periphery) [5] [%] | enhancement in lymph node tissue (iliac lymph nodes [6]; [7]) [%] | enhancement in lymph node tissue (iliac lymph nodes [6]; [8]) [%] | signal in healthy lymph node tissue (T1-weighted gradient-echo images) (iliac lymph nodes [6]; 200 μmol of Gd/kg i.v.) | enhancement of the primary tumor (center of the tumor) ([5]; 24 hours p.i.) [%] | also measured
7.06e-06 | 3.2 | 24.9 | O=C([O-])CN1CCN(CC(=O)[O-])CCN(CC(O)CNC(=O)CCCC(=O)N2CCN(C(F)(F)C(F)(F)C(F)(F)C(F)(F)C(F)(F)C(F)(F)C(F)(F)C(F)(F)F)CC2)CCN(CC(=O)[O-])CC1.[Gd+3] (centres unmarked) [metal complex III] | strong signal rise | 195 | 1.9 | 233 | 1.8 | without signal rise | 232 | 320 | 401 | strong signal rise |  | signal in the infarction area (T1-weighted spin-echo images) (myocardial infarction; 22 hours after i.v. 100 μmol of Gd/kg): strong signal rise
3.9e-06 | 4.4 | 19.6 | CC(C(=O)NCC(=O)N(CCOCCC(F)(F)C(F)(F)C(F)(F)C(F)(F)C(F)(F)C(F)(F)C(F)(F)C(F)(F)F)CC(O)CO)N1CCN(CC(=O)[O-])CCN(CC(=O)[O-])CCN(CC(=O)[O-])CC1.[Gd+3] (centres unmarked) [metal complex V] | strong signal rise | 246 | 2.5 | 282 | 1.7 | without signal rise | 350 | 147 | 230 | strong signal rise | 106 | signal in the infarction area (T1-weighted spin-echo images) (myocardial infarction; 24 hours after i.v. 100 μmol of Gd/kg): strong signal rise
0.00089 | 2.2 | 19.5 | CC(C(=O)NCC(=O)NCC(=O)N1CCN(C(=O)CNC(=O)CNC(=O)C(C)N2CCN(CC(=O)[O-])CCN(CC(=O)[O-])CCN(CC(=O)[O-])CC2)CCN(C(=O)COCCC(F)(F)C(F)(F)C(F)(F)C(F)(F)C(F)(F)C(F)(F)C(F)(F)C(F)(F)F)CCN(C(=O)CNC(=O)CNC(=O)C(C)N2CCN(CC(=O)[O-])CCN(CC(=O)[O-])CCN(CC(=O)[O-])CC2)CC1)N1CCN(CC(=O)[O-])CCN(CC(=O)[O-])CCN(CC(=O)[O-])CC1.[Gd+3].[Gd+3].[Gd+3] (centres unmarked) [metal complex XIV, 1,4,7-Tris{1,4,7-tris(N-(carboxylatomethyl)-10-[N-1-methyl-3,6-diaza-2,5,8-trioxooctane-1,8-diyl]-1,4,7,10-tetraazacyclododecane, Gdcomplex}-10-N-2H,2H,4H,4H,5H,5H-3-oxa-perfluoro-tridecanoyl]-1,4,7,10-tetraazacyclo-dodecane, Gd complex] | strong signal rise |  |  | 269 | 1.9 | without signal rise | 594 |  |  |  |  | signal in the infarction area (T1-weighted spin-echo images) (myocardial infarction; 3 hours after i.v. 100 μmol of Gd/kg): strong signal rise; enhancement in the healthy lymph node tissue (iliac lymph nodes [4]; 10 minutes p.i.): 297%; ratio of signal intensities of healthy lymph node tissue to metastasis (iliac lymph nodes [4]; 10 minutes p.i.): 5.1; enhancement of the primary tumor (center of the tumor) ([5]; 120 hours p.i.): 162%
7.9e-06 | 5.4 | 25.7 | COCCN(CCOCCC(F)(F)C(F)(F)C(F)(F)C(F)(F)C(F)(F)C(F)(F)C(F)(F)C(F)(F)F)C(=O)CNC(=O)C(C)N1CCN(CC(=O)[O-])CCN(CC(=O)[O-])CCN(CC(=O)[O-])CC1.[Gd+3] (centres unmarked) [metal complex X] | strong signal rise | 382 | 3.0 | 419 | 3.4 | without signal rise | 277 |  |  |  | 217 | signal in the infarction area (T1-weighted spin-echo images) (myocardial infarction; 6 hours after i.v. 100 μmol of Gd/kg): strong signal rise; enhancement in lymph node tissue (iliac lymph nodes [6]; 15 minutes p.i., 100 μmol of Gd/kg i.v.): 263%; enhancement in lymph node tissue (iliac lymph nodes [6]; 60 minutes p.i., 100 μmol of Gd/kg i.v.): 254%; signal in healthy lymph node tissue (T1-weighted gradient-echo images) (iliac lymph nodes [6]; 100 μmol of Gd/kg i.v.): strong signal rise
